According to the supplement of paper PMC11061612:

Key:
[1] = test system: G-361 (Melanoma); test: Bliss excess, mean over the matrix (fraction); higher = more synergy
How it was run: (§1)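 Cell lines in DMEM/F12 or RPMI with 10% FBS were plated in 1536-well plates, held 24 hours at 37°C, 5% CO2, then given two-drug dose matrices for 72 hours (DMSO typically 0.2%). Viability was read by CellTiter-Glo 2.0 luminescence and scaled as inhibition from 0 (vehicle wells) to 1 (blank wells). Combination Emax is the second-highest inhibition in the matrix; Bliss excess is observed combination effect minus expected EA + EB − EA·EB, EA and EB being single-agent effects.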

[2] = test system: MOLM-13 (Acute Myeloid Leukemia); test: as above
How it was run: as §1

[3] = test system: NCCIT (Other Solid Carcinomas); test: as above
How it was run: as §1

[4] = test system: MN-60 (B-Lymphoblastic Leukemia); test: as above
How it was run: as §1

[5] = test system: T-T (Esophageal Squamous Cell Carcinoma); test: as above
How it was run: as §1

[6] = test system: H9 (T-Cell Non-Hodgkin's Lymphoma); test: as above
How it was run: as §1

[7] = test system: CHSA8926 (Chondrosarcoma); test: as above
How it was run: as §1

[8] = test system: SUP-B15 (B-Lymphoblastic Leukemia); test: as above
How it was run: as §1

[9] = test system: PC-3 (Prostate Carcinoma); test: as above
How it was run: as §1

[10] = test system: NCI-H526 (Small Cell Lung Carcinoma); test: as above
How it was run: as §1

[11] = test system: JHH-4 (Hepatocellular Carcinoma); test: as above
How it was run: as §1

[12] = test system: NCI-H2731 (Mesothelioma); test: as above
How it was run: as §1

[13] = test system: KP-3 (Pancreatic Carcinoma); test: as above
How it was run: as §1

[14] = test system: SU-DHL-5 (B-Cell Non-Hodgkin's Lymphoma); test: as above
How it was run: as §1

[15] = test system: ESO51 (Esophageal Adenocarcinoma); test: as above
How it was run: as §1

[16] = test system: IM-95 (Gastric Carcinoma); test: as above
How it was run: as §1

[17] = test system: NCI-H3122 (Lung Adenocarcinoma); test: as above
How it was run: as §1

[18] = test system: HCC1187 (Breast Carcinoma); test: as above
How it was run: as §1

[19] = test system: KY821 (Acute Myeloid Leukemia); test: as above
How it was run: as §1

[20] = test system: 8505C (Thyroid Gland Carcinoma); test: combination Emax (second highest fraction inhibited in the dose matrix, 72 h); higher = more inhibition; extreme values may be limits of the assay
How it was run: as §1
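Wherever Bliss excess, mean over the matrix is given: after 72 h of two-drug dosing.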

SMILES | Bliss excess [1] | Bliss excess [2] | Bliss excess [3] | Bliss excess [4] | Bliss excess [5] | Bliss excess [6] | Bliss excess [7] | Bliss excess [8] | Bliss excess [9] | Bliss excess [10] | Bliss excess [11] | Bliss excess [12] | Bliss excess [13] | Bliss excess [14] | Bliss excess [15] | Bliss excess [16] | Bliss excess [17] | Bliss excess [18] | Bliss excess [19] | combination Emax [20]
COc1cccc(OCCCN)c1-c1cc(Nc2cnc(C#N)cn2)n[nH]1 [Prexasertib] + O=C(c1cc(Cc2n[nH]c(=O)c3ccccc23)ccc1F)N1CCN(C(=O)C2CC2)CC1 [Olaparib] (first compound max 1 µM, 7x7, partner max 10 µM) | -0.0411 | -0.0224 | -0.103 | -0.0494 | 0.0186 | -0.0088 | -0.0147 | -0.0191 | -0.0355 | -0.0214 | 0.0296 | -0.0228 | -0.0444 | -0.0097 | -0.248 | -0.0102 | 0.0161 | -0.0164 | -0.0266 | 0.722
COc1cc2c(cc1OCCCCCOc1cc3c(cc1OC)C(=O)N1C=C(C)C[C@H]1C=N3)N=C[C@@H]1CC(C)=CN1C2=O [SG3199] + O=C(c1cc(Cc2n[nH]c(=O)c3ccccc23)ccc1F)N1CCN(C(=O)C2CC2)CC1 [Olaparib] (first compound max 0.001 µM, 7x7, partner max 10 µM) | -0.0294 | 0.0049 | -0.0225 | -0.027 | -0.0418 | -0.0205 | -0.0566 | -0.0051 | -0.0417 | -0.0148 | -0.0327 | -0.0505 | -0.0424 | -0.027 | -0.0129 | -0.0392 | -0.0385 | -0.006 | -0.0244 | 0.202
CCc1c2c(nc3ccc(O)cc13)-c1cc3c(c(=O)n1C2)COC(=O)[C@]3(O)CC [SN-38] + CN(C)CCCOc1ccc(-c2ccc3ncc4c(c3c2)n(C2CCOCC2)c(=O)n4C)cn1 [AZD0156] (first compound max 0.3 µM, 7x7, partner max 1 µM) | 0.0105 | 0.0493 | 0.0163 | 0.0279 | -0.0151 | 0.116 | -0.0646 | -0.0408 | -0.0306 | 0.0215 | 0.0443 | -0.0407 | -0.0372 | 0.0712 | -0.031 | 0.0208 | 0.0427 | -0.0347 | 0.055 | 0.87
C[C@@H](c1ccc2nccn2c1)n1nnc2ncc(-c3cnn(C)c3)nc21 [Savolitinib] + CC1(C)CCC(CN2CCN(c3ccc(C(=O)NS(=O)(=O)c4ccc(NCC5CCOCC5)c([N+](=O)[O-])c4)c(Oc4cnc5[nH]ccc5c4)c3)CC2)=C(c2ccc(Cl)cc2)C1 [Venetoclax] (first compound max 1 µM, 7x7, partner max 1 µM) | -0.0764 | 0.0025 | -0.0394 | -0.0341 | 0.011 | -0.0453 | 0.0023 | -0.0465 | -0.0806 | 0.0111 | 0.0006 | -0.0423 | -0.0762 | -0.0977 | -0.0334 | -0.0368 | -0.0394 | -0.0494 | -0.0139 | 0.12
C[C@@H](c1ccc2nccn2c1)n1nnc2ncc(-c3cnn(C)c3)nc21 [Savolitinib] + Cc1c2c(nn1C)CSCc1cc(n(C)n1)CSc1cc(c3ccccc3c1)OCCCc1c(C(=O)O)n(C)c3c-2c(Cl)ccc13 [AZD5991] (first compound max 1 µM, 7x7, partner max 1 µM) | -0.0044 | -0.0112 | -0.0528 | -0.0334 | -0.0291 | 0.0005 | 0.0233 | -0.0555 | -0.0402 | -0.025 | -0.0082 | -0.0586 | -0.0785 | -0.0269 | -0.0013 | -0.0166 | -0.0562 | -0.0038 | -0.0415 | 0.173
Cn1cnc2c(F)c(Nc3ccc(Br)cc3Cl)c(C(=O)NOCCO)cc21 [Selumetinib] + C=CCn1c(=O)c2cnc(Nc3ccc(N4CCN(C)CC4)cc3)nc2n1-c1cccc(C(C)(C)O)n1 [AZD1775] (first compound max 10 µM, partner max 1 µM) | -0.0084 | -0.0414 | -0.0826 | -0.0154 | -0.056 | -0.0037 | -0.0377 | 0.0934 | -0.0947 | -0.052 | -0.0782 | -0.042 | -0.0312 | 0.0041 | -0.0767 | 0.0309 | -0.126 | -0.0201 | -0.115 | 0.425
Cn1cnc2c(F)c(Nc3ccc(Br)cc3Cl)c(C(=O)NOCCO)cc21 [Selumetinib] + CC(C)n1c(=O)n(C)c2cnc3cc(F)c(-c4ccc(OCCCN5CCCCC5)nc4)cc3c21 [AZD1390] (first compound max 10 µM, 7x7, partner max 0.3 µM) | -0.0582 | -0.0306 | -0.041 | -0.0402 | -0.0162 | -0.0033 | -0.0477 | -0.0281 | -0.0688 | -0.0186 | -0.0444 | -0.0364 | -0.0456 | 0.0267 | 0.0114 | -0.0078 | 0.0111 | 0.0068 | 0.0169 | 0.584
